Assay results as given in patent US6420427B1, “Aminobutyric acid derivatives” (Ono Pharmaceutical Co., Ltd., priority 1997, dated 2002).

Tests used:
Format in all cases: biochemical
human stromelysin = target: T1, human stromelysin (Homo sapiens, UniProt P08254); assay: Inhibitory activity against stromelysin; details: APMA-activated, substrate NFF-3, pH 7.5, 37° C.
T1 construct: purchased Yagai
Procedure: (3) Inhibitory Activity Against Stromelysin ps [Method]
The mixture of human stromelysin (Yagai; 9 volume) and 10 mM p-aminophenylmercury acetate (1 volume) was activated for 20 hours at 37° C. A solution of the test compound in dimethylsulfoxide (10 μl) and 0.5 mM solution (10 μl) of 10 mM solution of the synthetic substrate NFF-3 (Mca-Arg-Pro-Lys-Pro-Val-Glu-Nva-Trp-Arg-Lys(DNP)-NH2., Nva: norvaline, Peptide Laboratory) in dimethylsulfoxide diluted by water were added to assay buffer (50 mM tris-HCl, 10 mM CaCl2, 0.05% Brij35, 0.02% NaN3 (pH 7.5)) (150 μl). Furthermore, assay buffer (30 μl) was added to the mixture. The mixture was incubated for 10 minutes at 37° C. The reaction was started by addition of a solution of the above activated stromelysin solution (50 μl). The enzyme activity was represented by increasing value of fluorescent intensity [Ex=325 nm (Ex)/393 nm (Em)] per 1 minute. Inhibitory activity was represented by inhibitory percentage (%) per enzyme activity without the test compound.

gelatinase A = target: T2, gelatinase A (Homo sapiens, UniProt P08253); assay: Inhibitory activity against gelatinase A; details: progelatinase A from human normal skin dermal fibroblasts (HNDF), APMA-activated; fluorogenic substrate MOCAc-Pro-Leu-Gly-A2pr(Dnp)-Ala-Arg-NH2 13.5 μM, 37° C.
T2 construct: endogenous in cells; host or cells: human normal skin dermal fibroblasts (HNDF)
T2 sequence (P08253 110-660): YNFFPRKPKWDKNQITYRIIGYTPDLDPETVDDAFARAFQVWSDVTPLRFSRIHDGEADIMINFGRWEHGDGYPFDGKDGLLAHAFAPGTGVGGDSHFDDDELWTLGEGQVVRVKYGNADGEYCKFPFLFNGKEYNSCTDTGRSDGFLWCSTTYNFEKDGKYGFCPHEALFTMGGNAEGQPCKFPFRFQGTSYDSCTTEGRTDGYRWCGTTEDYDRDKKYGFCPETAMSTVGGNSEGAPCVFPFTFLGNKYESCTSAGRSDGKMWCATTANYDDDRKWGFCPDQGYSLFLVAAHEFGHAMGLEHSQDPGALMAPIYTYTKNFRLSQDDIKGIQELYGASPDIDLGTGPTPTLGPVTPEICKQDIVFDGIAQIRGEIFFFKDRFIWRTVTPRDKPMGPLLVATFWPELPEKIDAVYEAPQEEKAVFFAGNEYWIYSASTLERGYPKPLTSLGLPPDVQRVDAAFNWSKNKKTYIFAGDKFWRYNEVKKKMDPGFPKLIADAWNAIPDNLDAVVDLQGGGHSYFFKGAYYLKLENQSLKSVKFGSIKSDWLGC
Procedure: (1) Inhibitory Activity Against Gelatinase A
The progelatinase A (5 μl; in assay buffer (40 μl)) was purified from human normal skin dermal fibroblasts (HNDF). It was activated by the addition of 10 mM of p-aminophenylmercuric acetate (APMA) ([…]) for 1 hour at 37° C.
A mixture of the synthetic substrate (MOCAc-Pro-Leu-Gly-A2pr(Dnp)-Ala-Arg-NH2) (130 μl; a final concentration 13.5 μM) and a solution (20 μl) with or without various concentrations of the test compound was preincubated for 5 minutes at 37° C.
The solution of activated gelatinase A (50 μl/well) was mixed with the mixture and the mixture was incubated for 15 minutes at 37° C. The enzyme reaction was started. The enzyme activity was represented by increasing value of fluorescent intensity [Ex=325 nm (Ex)/393 nm (Em)] per 1 minute. Inhibitory activity was represented by inhibitory percentage (%) per enzyme activity without the test compound. For example, IC50 of the compound as Example 71 is 0.50 nM.

collagenase = target: T3, collagenase (Homo sapiens, UniProt P03956); assay: Inhibitory activity against collagenase; details: procollagenase from HNDF, trypsin-activated; thioester substrate 1.33 mM, 26° C., absorption at 324 nm
T3 construct: endogenous in cells; host or cells: human normal skin dermal fibroblasts (HNDF)
T3 sequence (P03956 100-469): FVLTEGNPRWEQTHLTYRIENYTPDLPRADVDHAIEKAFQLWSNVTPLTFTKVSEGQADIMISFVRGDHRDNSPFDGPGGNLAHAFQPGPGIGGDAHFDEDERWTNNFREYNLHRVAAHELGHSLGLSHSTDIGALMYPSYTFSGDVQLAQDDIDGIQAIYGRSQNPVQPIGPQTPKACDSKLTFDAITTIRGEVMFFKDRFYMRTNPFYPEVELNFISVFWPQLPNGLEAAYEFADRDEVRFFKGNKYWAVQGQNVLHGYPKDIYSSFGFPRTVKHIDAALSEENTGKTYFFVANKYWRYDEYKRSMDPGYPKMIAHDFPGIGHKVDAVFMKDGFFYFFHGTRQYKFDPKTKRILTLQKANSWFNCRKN
Procedure: (2) Inhibitory Activity Against Collagenase
The procollagenase (5 μl; in assay buffer (105 μl)) was purified from human normal skin dermal fibroblasts (HNDF). It was activated by the addition of 1 mg/ml Trypsin (45 μl) for 1 minute at 37° C. Trypsin was inactivated by addition of 5 mg/ml soybean trypsin inhibitor (SBTI; 50 μl).
A mixture of the synthetic substrate (Ac-Pro-Leu-Gly-[2-mercapto-4-methyl-pentanoyl]-Leu-Gly-OEt) (105 μl; a final concentration 1.33 mM) and a solution (20 μl) with or without various concentrations of the test compound was preincubated for 5 minutes at 26° C.
The solution of activated enzyme (75 μl/tube, 50 μl) was mixed with the mixture and the mixture was incubated for 10 minutes at 26° C.
Absorption at 324 nm was measured at 40 points over 10 minutes. Vmax value was determined as measured value in 30 points therein.

T1 sequence (P08254 100-477): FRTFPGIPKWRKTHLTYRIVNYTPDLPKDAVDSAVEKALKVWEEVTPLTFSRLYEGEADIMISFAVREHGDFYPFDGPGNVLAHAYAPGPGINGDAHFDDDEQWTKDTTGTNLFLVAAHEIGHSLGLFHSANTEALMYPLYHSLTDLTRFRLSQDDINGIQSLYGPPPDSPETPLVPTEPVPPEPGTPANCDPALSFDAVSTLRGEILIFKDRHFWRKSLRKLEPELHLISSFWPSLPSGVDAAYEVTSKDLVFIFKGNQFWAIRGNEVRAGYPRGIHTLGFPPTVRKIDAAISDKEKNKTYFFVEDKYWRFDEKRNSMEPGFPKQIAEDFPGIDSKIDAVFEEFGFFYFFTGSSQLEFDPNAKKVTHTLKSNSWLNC

IC50 (human stromelysin): 26 nM | IC50 (gelatinase A): 0.5 nM | IC50 (collagenase): 2500 nM
SMILES: CCOCOC[C@H](C[C@H](C)C(=O)NO)NC(=O)c1ccc(Oc2ccccc2)cc1 [Example 71, N-Hydroxy-2(S)-methyl-5-ethoxymethoxy-4(S)-[N-(4-phenoxyphenylcarbonyl)-amino]pentanamide]
